# Data published in patent US20050234065A1, “Dipeptidyl peptidase-IV inhibitors” (Pfizer Inc, priority 2004, published 2005).
# Where two headings read alike, the source gives them in different places.
# Biological target: T1, DPP-IV (Homo sapiens, UniProt P27487)
# T1 construct: purchased Enzyme Systems Products SPE-01
# Assay: In vitro assay for dipeptidyl peptidase inhibition
# Type: biochemical
# Details: hydrochloride salts, Gly-Pro-4-methoxy B naphthylamide substrate, overnight at 37° C.
# Experimental: 150 μL of an enzyme-substrate solution was pipetted into microtiter wells of a polystyrene 96-well plate, and maintained at 4° C. The enzyme-substrate solution comprised 50 μM Gly-Pro-4-methoxy B naphthylamide HCl in 50 mM Tris assay buffer pH 7.3 containing 0.1M sodium chloride, 0.1% (v/v) Triton and 50 μU/mL DPP-IV (Enzyme Systems Products Cat#SPE-01, DPP-IV 5 mU/mL stock). 5 μL/well of compounds of Formula (I) were added, bringing the final compound of Formula (I) concentrations to 3 μM-10 nM per well.
# Controls. Enzyme was omitted from four (4) wells, as a reagent blank. 5 μL of 3 mM Diprotin A was added to four wells as a positive quality control, providing a final Diprotin A concentration of 100 μM. To measure total enzyme activity (i.e. a negative control), without the influence of any compounds of Formula (I), 5 μL of distilled water was added to four wells.
# The entire assay was incubated overnight (about 14-18 hours) at 37° C.
# [1] = read-out: IC50 (concentration of test compound required for 50% inhibition)
# [2] = read-out: IC50 (concentration of test compound required for 50% inhibition), bound given in μM
# T1 sequence (P27487 whole entry, species assumed): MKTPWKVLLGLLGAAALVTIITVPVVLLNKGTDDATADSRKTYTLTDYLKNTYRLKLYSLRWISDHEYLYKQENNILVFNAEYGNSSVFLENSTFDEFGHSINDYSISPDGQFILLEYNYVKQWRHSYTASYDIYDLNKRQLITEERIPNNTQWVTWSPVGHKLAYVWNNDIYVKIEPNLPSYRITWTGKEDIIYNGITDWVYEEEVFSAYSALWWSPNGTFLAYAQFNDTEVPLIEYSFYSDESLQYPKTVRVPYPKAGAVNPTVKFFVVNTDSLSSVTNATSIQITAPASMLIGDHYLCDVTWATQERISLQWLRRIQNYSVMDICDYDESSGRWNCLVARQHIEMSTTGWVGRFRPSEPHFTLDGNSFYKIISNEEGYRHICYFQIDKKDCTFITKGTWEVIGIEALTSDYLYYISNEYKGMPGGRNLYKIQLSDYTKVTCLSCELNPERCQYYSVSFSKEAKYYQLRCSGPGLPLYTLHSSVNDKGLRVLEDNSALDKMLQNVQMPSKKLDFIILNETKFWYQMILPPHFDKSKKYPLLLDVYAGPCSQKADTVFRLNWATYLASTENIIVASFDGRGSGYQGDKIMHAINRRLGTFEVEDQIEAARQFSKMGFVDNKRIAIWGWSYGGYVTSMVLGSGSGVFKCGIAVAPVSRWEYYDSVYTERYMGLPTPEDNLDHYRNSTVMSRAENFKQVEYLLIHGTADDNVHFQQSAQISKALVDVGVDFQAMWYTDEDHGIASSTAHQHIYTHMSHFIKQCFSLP
Compound,IC50 [1],IC50 [2]
"N[C@H](C(=O)N1CCCC1)[C@H]1CC[C@@H](NC(=O)CNC(=O)c2ccccc2)CC1 [Example 1, N-{[cis-4-((1S)-1-amino-2-oxo-2-pyrrolidin-1-yl-ethyl)-cyclohexylcarbamoyl]-methyl}-benzamide]",> 0.5 µM,–
"N[C@H](C(=O)N1CCCC1)[C@H]1CC[C@@H](NC(=O)CNC(=O)OCc2ccccc2)CC1 [Example 2, {[cis-4-((1S)-1-amino-2-oxo-2-pyrrolidin-1-yl-ethyl)-cyclohexylcarbamoyl]-methyl}-carbamic acid benzyl ester]",> 0.5 µM,–
"N[C@H](C(=O)N1CCCC1)[C@H]1CC[C@@H](NC(=O)[C@H]2COCN2C(=O)OCc2ccccc2)CC1 [Example 5, (4R)-4-[cis-4-((1S)-1-amino-2-oxo-2-pyrrolidin-1-yl-ethyl)-cyclohexylcarbamoyl]-oxazolidine-3-carboxylic acid benzyl ester]",0.1 to 0.5 µM,–
"N[C@H](C(=O)N1CCCC1)[C@H]1CC[C@@H](NC(=O)[C@@H]2COCN2C(=O)OCc2ccccc2)CC1 [Example 6, (4S)-4-[cis-4-((1S)-1-amino-2-oxo-2-pyrrolidin-1-yl-ethyl)-cyclohexylcarbamoyl]-oxazolidine-3-carboxylic acid benzyl ester]",> 0.5 µM,≤ 1 µM
"N[C@H](C(=O)N1CCCC1)[C@H]1CC[C@H](NC(=O)[C@H]2COCN2C(=O)OCc2ccccc2)CC1 [Example 8, (4R)-4-[trans-4-((1S)-1-amino-2-oxo-2-pyrrolidin-1-yl-ethyl)-cyclohexylcarbamoyl]-oxazolidine-3-carboxylic acid benzyl ester]",0.1 to 0.5 µM,–
"N[C@H](C(=O)N1CCCC1)[C@H]1CC[C@H](NC(=O)[C@@H]2CNC(=O)N2C(=O)OCc2ccccc2)CC1 [Example 9, (5S)-5-[trans-4-((1S)-1-amino-2-oxo-2-pyrrolidin-1-yl-ethyl)-cyclohexylcarbamoyl]-2-oxo-imidazolidine-1-carboxylic acid benzyl ester]",≤ 0.1 µM,–
"N[C@H](C(=O)N1CCCC1)[C@H]1CC[C@H](NC(=O)[C@@H]2COCN2C(=O)OCc2ccccc2)CC1 [Example 11, (4S)-4-[trans-4-((1S)-1-amino-2-oxo-2-pyrrolidin-1-yl-ethyl)-cyclohexylcarbamoyl]-oxazolidine-3-carboxylic acid benzyl ester]",≤ 0.1 µM,–
"N[C@H](C(=O)N1CCCC1)[C@H]1CC[C@H](NC(=O)[C@@H]2CCC(=O)N2C(=O)OCc2ccccc2)CC1 [Example 14, (2S)-2-[trans-4-(1-(1S)-amino-2-oxo-2-pyrrolidin-1-yl-ethyl)-cyclohexylcarbamoyl]-5-oxo-pyrrolidine-1-carboxylic acid benzyl ester]",0.1 to 0.5 µM,–
"CN(C(=O)OCc1ccccc1)C(C)(C)C(=O)N[C@H]1CC[C@H]([C@H](N)C(=O)N2CCCC2)CC1 [Example 17, (S)-{1-[trans-4-(1-amino-2-oxo-2-pyrrolidin-1-yl-ethyl)-cyclohexylcarbamoyl]-1-methyl-ethyl)-methyl-carbamic acid benzyl ester]",0.1 to 0.5 µM,–
"NC(=O)c1nccnc1C(=O)N[C@H]1CC[C@H]([C@H](N)C(=O)N2CCCC2)CC1 [Example 19, (S)-pyrazine-2,3-dicarboxylic acid amide [trans-4-(1-amino-2-oxo-2-pyrrolidin-1-yl-ethyl)-cyclohexyl]-amide]",≤ 0.1 µM,–
"N[C@H](C(=O)N1CCCC1)[C@H]1CC[C@H](NC(=O)N2CCC[C@H]2COCc2ccccc2)CC1 [Example 25, 2-benzyloxymethyl-pyrrolidine-1-carboxylic acid [trans-4-((1S)-1-Amino-2-oxo-2-pyrrolidin-1-yl-ethyl)-cyclohexyl]-amide]",≤ 0.1 µM,–
"N[C@H](C(=O)N1CCCC1)[C@H]1CC[C@H](N2C(=O)O[C@@H](c3ccccc3)C2=O)CC1 [Example 28, 3-[trans-4-((1S)-1-amino-2-oxo-2-pyrrolidin-1-yl-ethyl)-cyclohexyl]-(5S)-5-phenyl-oxazolidine-2,4-dione]",0.1 to 0.5 µM,–
"N[C@H](C(=O)N1CCC(F)(F)C1)[C@H]1CC[C@H](NC(=O)[C@@H]2CNC(=O)N2C(=O)OCc2ccccc2)CC1 [Example 29, (5S)-5-{trans-4-[(1S)-1-amino-2-(3,3-difluoro-pyrrolidin-1-yl)-2-oxo-ethyl]-cyclohexylcarbamoyl}-2-oxo-imidazolidine-1-carboxylic acid benzyl ester]",≤ 0.1 µM,–
"CN(CC(=O)N[C@H]1CC[C@H]([C@H](N)C(=O)N2CCC(F)(F)C2)CC1)C(=O)OCc1ccccc1 [Example 30, (S)-({trans-4-[1-amino-2-(3,3-difluoro-pyrrolidin-1-yl)-2-oxo-ethyl]-cyclohexylcarbamoyl}-methyl)-methyl-carbamic acid benzyl ester]",≤ 0.1 µM,–
"N[C@H](C(=O)N1CCC(F)(F)C1)[C@H]1CC[C@H](NC(=O)[C@@H]2C[C@@H](O)CN2C(=O)OCc2ccccc2)CC1 [Example 31, 2-{trans-4-[1-(1S)-amino-2-(3,3-difluoro-pyrrolidin-1-yl)-2-oxo-ethyl]-cyclohexylcarbamoyl}-(4R)-4-hydroxy-pyrrolidine-1-carboxylic acid benzyl ester]",≤ 0.1 µM,–

# The next lines start with the values.
IC50 [1],IC50 [2],Compound
0.1 to 0.5 µM,–,"N[C@H](C(=O)N1CCCC1)[C@H]1CC[C@@H](NC(=O)CCC2C(=O)OCN2C(=O)OCc2ccccc2)CC1 (stereo in doubt) [Example 4, (4S)-4-{2-[cis-4-((1S)-1-amino-2-oxo-2-pyrrolidin-1-yl-ethyl)-cyclohexylcarbamoyl]-ethyl}-5-oxo-oxazolidine-3-carboxylic acid benzyl ester]"
> 0.5 µM,–,"N[C@H](C(=O)N1CCCC1)[C@H]1CC[C@@H](NC(=O)[C@@H]2CCCN2C(=O)OCc2ccccc2)CC1 [Example 3, (2S)-2-[cis-4-(1-(1S)-amino-2-oxo-2-pyrrolidin-1-yl-ethyl)-cyclohexylcarbamoyl]-pyrrolidine-1-carboxylic acid benzyl ester]"
> 0.5 µM,≤ 1 µM,"N[C@H](C(=O)N1CCCC1)[C@H]1CC[C@@H](NC(=O)[C@@H]2CNC(=O)N2C(=O)OCc2ccccc2)CC1 [Example 7, (5S)-5-[cis-4-((1S)-1-amino-2-oxo-2-pyrrolidin-1-yl-ethyl)-cyclohexylcarbamoyl]-2-oxo-imidazolidine-1-carboxylic acid benzyl ester]"
≤ 0.1 µM,–,"N[C@H](C(=O)N1CCCC1)[C@H]1CC[C@H](NC(=O)CC[C@H]2C(=O)OCN2C(=O)OCc2ccccc2)CC1 [Example 10, (4S)-4-{2-[trans-4-((1S-)-1-amino-2-oxo-2-pyrrolidin-1-yl-ethyl)-cyclohexylcarbamoyl]-ethyl}-5-oxo-oxazolidine-3-carboxylic acid benzyl ester]"
≤ 0.1 µM,–,"N[C@H](C(=O)N1CCCC1)[C@H]1CC[C@H](NC(=O)[C@@H]2C[C@@H](O)CN2C(=O)OCc2ccccc2)CC1 [Example 12, (2S,4R)-2-[trans-4-((1S)-1-amino-2-oxo-2-pyrrolidin-1-yl-ethyl)-cyclohexylcarbamoyl]-4-hydroxy-pyrrolidine-1-carboxylic acid benzyl ester]"
≤ 0.1 µM,–,"N[C@H](C(=O)N1CCCC1)[C@H]1CC[C@H](NC(=O)C[C@H]2C(=O)OCN2C(=O)OCc2ccccc2)CC1 [Example 13, (4S)-4-{[trans-4-((1S)-1-amino-2-oxo-2-pyrrolidin-1-yl-ethyl)-cyclohexylcarbamoyl]-methyl}-5-oxo-oxazolidine-3-carboxylic acid benzyl ester]"
≤ 0.1 µM,–,"N[C@H](C(=O)N1CCCC1)[C@H]1CC[C@H](NC(=O)[C@H]2CCC(=O)N2C(=O)OCc2ccccc2)CC1 [Example 15, (2R)-2-[trans-4-(1-(S)-amino-2-oxo-2-pyrrolidin-1-yl-ethyl)-cyclohexylcarbamoyl]-5-oxo-pyrrolidine-1-carboxylic acid benzyl ester]"
≤ 0.1 µM,–,"N[C@H](C(=O)N1CCCC1)[C@H]1CC[C@H](NC(=O)[C@@H]2COC(=O)N2Cc2ccccc2)CC1 [Example 16, (4S)-3-benzyl-2-oxo-oxazolidine-4-carboxylic acid [trans-4-((1S)-1-Amino-2-oxo-2-pyrrolidin-1-yl-ethyl)-cyclohexyl]-amide]"
≤ 0.1 µM,–,"N[C@H](C(=O)N1CCCC1)[C@H]1CC[C@H](NC(=O)CN2C(=O)c3ccccc3/C2=C\c2ccccc2)CC1 [Example 20, N-[trans-4-(1-(1S)-amino-2-oxo-2-pyrrolidin-1-yl-ethyl)-cyclohexyl]-2-(1-benzylidene-3-oxo-1,3-dihydro-isoindol-2-yl)-acetamide]"
0.1 to 0.5 µM,–,"NC(C(=O)N1CCCC1)C1CCC(NC(=O)C2CC(O)CN2)CC1 [Example 21, (1S,4R)-4-hydroxy-pyrrolidine-2-carboxylic acid [trans-4-((1S)-1-amino-2-oxo-2-pyrrolidin-1-yl-ethyl)-cyclohexyl]-amide]"
≤ 0.1 µM,–,"N[C@H](C(=O)N1CCCC1)[C@H]1CC[C@H](N2C(=O)c3nccnc3C2=O)CC1 [Example 22, 6-[trans-4-((1S)-1-amino-2-oxo-2-pyrrolidin-1-yl-ethyl)-cyclohexyl]-pyrrolo[3,4-b]pyrazine-5,7-dione]"
≤ 0.1 µM,–,"N[C@H](C(=O)N1CCCC1)[C@H]1CC[C@H](N2C(=O)c3cccnc3C2=O)CC1 [Example 24, 6-[trans-4-((1S)-1-amino-2-oxo-2-pyrrolidin-1-yl-ethyl)-cyclohexyl]-pyrrolo[3,4-b]pyridine-5,7-dione]"
